Source: patent US20230364121A1 (priority 2020, published 2023)
“And” between values parts separate entries of the source, which are not always exact repeats. Equal entries are not always repeated.

What was measured:
[1] = target: T1, SARS-CoV-2 ExoN (nsp14/nsp10) (Severe acute respiratory syndrome coronavirus 2, UniProt P0DTD1); assay type: biochemical
T1 construct: 50 nM nsp14/nsp10 (1:5) were added for time-course reactions

SARS-CoV-2 viral genome = assay type: cell-based

| SMILES | resistance to ExoN mediated excision relative to an unmodified RNA 3′-end [1] | Mean number of mutations, transition A > G (SARS-CoV-2 viral genome) | Mean number of mutations, transition C > T (SARS-CoV-2 viral genome) | Mean number of mutations, transition G > A (SARS-CoV-2 viral genome) | Mean number of mutations, transition T > C (SARS-CoV-2 viral genome) | Number of Mutations, transition A > G (SARS-CoV-2 viral genome) | Number of Mutations, transition C > T (SARS-CoV-2 viral genome) | Number of Mutations, transition G > A (SARS-CoV-2 viral genome) | Number of Mutations, transition T > C (SARS-CoV-2 viral genome) | number of mutations compared to virus control Vc (SARS-CoV-2 viral genome) |
| --- | --- | --- | --- | --- | --- | --- | --- | --- | --- | --- |
| C[C@@]1(F)[C@H](O)[C@@H](COP(=O)(O)OP(=O)(O)OP(=O)(O)O)O[C@H]1n1cnc2c(=O)[nH]c(N)nc21 [AT-9010, 2′-fluoro-2′-C-methylguanosine-5′-triphosphate] | ~4.8 fold | – | – | – | – | – | – | – | – | – |
| CNc1nc(N)nc2c1ncn2[C@@H]1O[C@H](COP(=O)(N[C@@H](C)C(=O)OC(C)C)Oc2ccccc2)[C@@H](O)[C@@]1(C)F (stereo partly shown) [Compound 1A] | – | 429 | 24.5 | 6 | 473 | 454 and 404 | 22 and 27 | 7 and 5 | 489 and 457 | did not show an increased number of mutations |
| CC(C)C[C@H](NC(=O)OCc1ccccc1)C(=O)N[C@@H](C[C@@H]1CCNC1=O)C(O)S(=O)(=O)O (stereo partly shown) [GC376] | – | – | – | – | – | – | – | – | – | slight increase of the number of mutations |
| CC(C)C[C@H](NC(=O)OCc1ccccc1)C(=O)N[C@@H](CC1CCNC1=O)C(O)S(=O)(=O)[O-].[Na+] (stereo partly shown) [GC 376] | – | 465.5 | 62 | 14.5 | 532.5 | 545 and 368 | 51 and 73 | – | 662 and 403 | – |
| CC(C)C(=O)OC[C@H]1O[C@@H](n2ccc(NO)nc2=O)[C@H](O)[C@@H]1O [Molnupiravir, molnupiravir] | – | 842 | 592 | 385 | 910.5 | 813 and 871 | 602 and 582 | 385 | 932 and 889 | significant increase in the number of mutations |
| C[C@@]1(F)[C@H](O)[C@@H](COP(=O)(O)OP(=O)(O)OP(=O)(O)O)O[C@H]1n1ccc(=O)[nH]c1=O [STP, 5′-triphosphate 2′-fluoro-2′-C-methyl uridine] | ~1.2 fold | – | – | – | – | – | – | – | – | – |
